# Test results published in US20140196172A1, “Organelle Targeting Nanocarriers” (Her Majesty the Queen in Right of Canada, as Repre sented …, priority 2011, published 2014).
# Legend:
# [1] = tested on: proplastids of triticale microspores; experiment: qRT-PCR of gfp mRNA, microspores transfected with pWCaadA16GFP; assay type: cell-based; conditions: gfp reporter construct
# Text: (§1) FIG. 18 is a plot showing the level of expression (fold increase, average of 4 replicates) of GFP in triticale microspores transfected with the pWCaadA16GFP plasmid in the presence of cTP1 (SEQ ID NO: 6), cTP2 (SEQ ID NO: 7), cTP3 (SEQ ID NO: 8), cTP4 (SEQ ID NO: 9) or cTP5 (SEQ ID NO: 10) compared to the level of expression (fold increase) of the internal control elongation factor 1a (EF1a), as measured by quantitative real time PCR of mRNA levels;
# (§2) Wheat chloroplast aadA16GFP reporter plasmid (pWCaadA16GFP, FIG. 12) is a 4212 base pair wheat specific plastid transformation vector, which targets insertions into the tml-tmA inverted repeat regions of the Triticum aestivum plastid genome at nucleotides 92850-93727 and 93794-94671 (GenBank accession No. AB042240.3). A multiple cloning site is introduced following the tml target insertion sequence. The selection marker gene is an organelle codon specific aad-gfp fusion gene, which facilitates a dual selection method of spectinomycin resistance through an aadA derivative and visual detection by GFP fluorescence (GenBank accession No. ABX39486; Khan and Maliga, Nat. Biotechnol. (1999 September) 17(9): 910-5). The selection marker gene is driven by the Triticum aestivum plastid genome promoter (psbA) at nucleotides 1282-1153 (GenBank accession No. AB042240.3). The aad-gfp fusion gene is terminated with the rice psbA terminator sequence derived from chloroplast transformation vector pVSR326 nucleotides 4014-4387 (GenBank accession No. AF527485.1).
# The dsDNA construct (pWMaadA16GFP for mitochondrial expression or pWCaadA16GFP for expression in chloroplasts) is combined with the mTP (for mitochondrial expression) or cTP (for expression in chloroplasts) in the amounts used in the protoplast transformation experiments described above in a final volume of 100 μl of NBP-99 solution. The mixture is incubated for 10 minutes at room temperature, then incubated with isolated triticale microspores (500 μl, 10^6 microspores/ml, prepared as described in Example 2) for 1 h in the dark at room temperature. NBP-99 solution (500 μl) is added and the mixture is incubated in the dark for 24 h. The cells are imaged using confocal microscopy, as described in Example 2, using MitoTracker® Orange staining to visualize mitochondria.
# Microspores are disrupted using a cleaned ceramic bead and aggressive shaking as the tissue is thawing. RLT buffer/B-Me (450 μl) is added and the sample is vortexed. The sample is heated at 55° C. for 1 minute and vortexed again. RNA is extracted using an RNeasy™ Plant Mini Kit (Qiagen), incorporating on-column DNase I digestion into the protocol. The final elution volume is 40 μl. RNA is assessed using both agarose gel […] (to ensure RNA is intact) and spectrophotometry (for quantification).
# (§3) cDNA is generated using a First Strand Synthesis kit (Invitrogen). RNA (1 μg) is added to each sample and the manufacturer's protocol for synthesis followed, with the exception that the volume of the reaction mixture is increased from 20 μl to 30 μl. A negRT sample containing all reagents but no RNA is included in the cDNA synthesis as a negative control.
# Standard curves are generated for both elongation factor 1a (EF1a) (internal control) and green fluorescent protein (GFP) (test) genes. […]
# (§4) Real time PCR reactions are performed using QuantiTect™ SYBR™ Green PCR Master Mix (Qiagen) in a 20 μl reaction volume. […]
# [2] = tested on: chloroplasts of triticale protoplasts; experiment: qRT-PCR of gfp mRNA, protoplasts transfected with pWCaadA16GFP; assay type: cell-based; conditions: gfp reporter construct
# Text: as §1, with “20” for “18”, “protoplasts” for “microspores”, “levels.” for “levels;”
# as §2
# The dsDNA construct (pWMaadA16GFP for mitochondrial expression or pWCaadA16GFP for expression in chloroplasts) is combined with the mTP (for mitochondrial expression) or cTP (for expression in chloroplasts) in a final volume of 100 μl of CPW solution. For experiments using mTP1 (SEQ ID NO: 1), mTP2 (SEQ ID NO: 2), mTP3 (SEQ ID NO: 3), or mTP5 (SEQ ID NO: 5), peptides (scaled up from 100 ng, at four times the concentration needed to cause a DNA shift in the gel mobility shift assay (Table 7)) are combined with the pWMaadA16GFP construct (5 μg). For experiments using the remaining oTPs, peptides (30 μg) are combined with the appropriate dsDNA construct (1.5 μg). The mixture is incubated for 10 minutes at room temperature, then incubated with isolated triticale mesophyll protoplasts (500 μl, 10^6 protoplasts/ml, prepared as described in Example 2) for 1 h in the dark at room temperature. CPW solution (500 μl) is added and the mixture is incubated in the dark for 24 h. The cells are imaged using confocal microscopy, as described in Example 2, using MitoTracker® Orange staining to visualize mitochondria and chlorophyll autofluorescence to visualize chloroplasts.
# as §3
# Standard curves are generated for both elongation factor 1a (EF1a) (internal control) and green fluorescent protein (GFP) (test) genes. The EF1a curve is generated by pooling 6 μl of each cDNA sample (excluding the negRT control), then carrying out a serial dilution of 0.5 for 5 more dilutions. […]
# as §4
sequence,measurement,setting,value
MKNPPSSFASGFGIR (listed as Oryza sativa) [cTP3],GFP expression by proplastids confirmed by qRT-PCR,[1],GFP is expressed
same,GFP expression by chloroplasts confirmed by qRT-PCR,[2],GFP is expressed
